Assay results taken from the supplement of paper PMC6723410.
Where “and” joins values, the source holds several entries; their conditions need not be identical. Equal values may be shown once.

Test system: GUMC-403
Test: viability at highest tested concentration (max response) relative to DMSO (% of DMSO control); higher = less cytotoxic
Details: library / dose series: MIPE library, 11-point 1:3 dilution, 48 h
How it was run: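 Viability at the highest tested concentration is given relative to vehicle control. For this, conditionally reprogrammed patient-derived GUMC-403 papilloma cells at 700/well in 1536-well plates were exposed to 23 nL of pinned compound for 48 h. Luminescence from CellTiter-Glo was read on a ViewLux and scaled between empty wells (0%) and vehicle wells (100%).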

Structure (SMILES)	viability (top concentration 46.1 µM)	viability (top concentration 23 µM)
Cc1cc2c(F)c(Oc3ncnn4cc(OC[C@@H](C)O)c(C)c34)ccc2[nH]1	118	–
Cc1nc(NC(=O)N2CCC[C@H]2C(N)=O)sc1-c1ccnc(C(C)(C)C(F)(F)F)c1	42.4	–
Clc2cccc(Cl)c2\N=C1/NCCN1	132	–
COC(=O)Nc1nc2cc(C(=O)c3cccs3)ccc2[nH]1	105	–
Nc1ccccc1NC(=O)c1ccc(CNC(=O)OCc2cccnc2)cc1	110	–
CCCCCCCc1ccc(CCc2cccc(O)c2C(=O)O)cc1	108	–
CO[C@H]1CCC(O[C@H]2C[C@H]([C@]3(C)CC[C@]4(C[C@H](O)[C@@H](C)[C@@H]([C@@H](C)/C=C(\C)C(=O)[C@H](C)C[C@H](C)C(=O)[O-])O4)O3)O[C@]3(O[C@@H]([C@H]4O[C@@](O)(CO)[C@H](C)C[C@@H]4C)C[C@@H]3C)[C@@H]2C)O[C@@H]1C (stereo not given in full)	104	–
CN(C)C(=N)NC(=N)N	122	–
Cc1cccc(/C=N/Nc2cc(N3CCOCC3)nc(OCCc3ccccn3)n2)c1	87.4	–
CCN(CC)CCOc1ccc(/C(=C(\Cl)c2ccccc2)c2ccccc2)cc1	114	–
COc1nccc(-c2c(-c3ccc(F)cc3)ncn2C2CCC(O)CC2)n1 (stereo not given)	131	–
CCC[S+]([O-])c1ccc2[nH]c(NC(=O)OC)nc2c1 (stereo not given)	92.2	–
OC1=CC2=C(C=C1)C(=O)\C(=C(O2)\C3=CC(=C(O)C=C3)O)O	72.6	–
NC(=O)c1cccc(-c2cccc(OC(=O)NC3CCCCC3)c2)c1	104	–
N#C/C(=C\c1ccc(O)c(O)c1)C(=O)NCc1ccccc1	110	–
CCCOc1ccc2[nH]c(NC(=O)OC)nc2c1	108	–
CC(=O)N1CCN(c2ccc(OCc3nn(C)c(C)c3-c3cccc4c(CCCOc5cc(C)c(Cl)c(C)c5)c(C(=O)O)n(Cc5cccnc5)c34)cc2)CC1	137	–
OC1CCC(Nc2ncc3nc(Nc4c(F)cc(F)cc4F)n([C@@H]4CCOC4)c3n2)CC1 (stereo not given in full)	95.5	–
CC1(C)O[C@@H]2C[C@H]3[C@@H]4C[C@H](F)C5=CC(=O)C=C[C@]5(C)[C@@]4(F)[C@@H](O)C[C@]3(C)[C@]2(C(=O)CO)O1	109	–
CCOc1ccccc1N/N=C1/C(=O)N(c2nc(-c3ccccc3)cs2)N=C1C	115	–
Cc1cnc(Nc2ccc(F)cc2Cl)nc1-c1c[nH]c(C(=O)N[C@H](CO)c2cccc(Cl)c2)c1	80.9	–
OC[C@H]1O[C@H]([C@@H](F)[C@@H]1O)N2\C=C/C(=O)NC2=O	116	–
Cc1cccc(C#Cc2ccccc2)n1	101	–
CC(C(C)N1CC(=O)NC(=O)C1)N1CC(=O)NC(=O)C1 (stereo not given)	109	–
CN1C(=O)\C(=C/C2=C1N=C(NC3CCOCC3)N=C2)OC4=C(F)C=C(F)C=C4	85.5	–
Cc1onc(-c2ccccc2)c1C(=O)N[C@@H]1C(=O)N2[C@@H]1SC(C)(C)[C@@H]2C(=O)[O-].[Na+]	109	–
CCCCCCCCCC(=O)N[C@@H](Cc1c[nH]c2ccccc12)C(=O)N[C@H](CC(N)=O)C(=O)N[C@@H](CC(=O)O)C(=O)N[C@@H]1C(=O)NCC(=O)N[C@@H](CCCN)C(=O)N[C@@H](CC(=O)O)C(=O)N[C@H](C)C(=O)N[C@@H](CC(=O)O)C(=O)NCC(=O)N[C@H](CO)C(=O)N[C@@H]([C@@H](C)CC(=O)O)C(=O)N[C@@H](CC(=O)c2ccccc2N)C(=O)O[C@@H]1C	101	–

Structure (SMILES)	viability (top concentration 46.1 µM)	viability (top concentration 23 µM)
N[S+](=O)([O-])c1ccc(Nc2nc(OCC3CCCCC3)c3[nH]cnc3n2)cc1	46.9	–
NCCS(=O)(=O)O	123	–
Nc1nc2ccc(OC(F)(F)F)cc2s1	86.9	–
CC[C@@H](C)[C@H](NC(=O)[C@H](CC1CCCCC1)NC(=O)c1ccno1)C(=O)N1CCC2(CCc3ccccc32)CC1	90.5	–
CC(=O)Oc1ccccc1C(=O)O	118	–
C[C@@H]1CC[C@@]2(CC[C@]3(C)\C(=C/C[C@@H]4[C@@]5(C)C[C@@H](O)[C@H](O)[C@@](C)(CO)[C@@H]5CC[C@@]34C)[C@@H]2[C@H]1C)C(O)=O	114	–
CC(=O)OCC(=O)[C@@]1(O)CC[C@H]2[C@@H]3CCC/4=C/C(=O)CC[C@]4(C)[C@H]3C(=O)C[C@]12C	119	–
Oc1ccc(C2CCN(c3ccnc4ccccc34)CC2)cc1O	92.8	–
CC(C)(C)c1cc(C(=O)O)c(NC(=O)Nc2ccc3[nH]ncc3c2)s1	87.6	–
C[C@]1(O)CC(C1)C2=NC(=C3[N]2C=CN=C3N)C4=CC5=C(C=C4)C=CC(=N5)C6=CC=CC=C6 (stereo not given)	86.4	–
CC(=O)[C@H]1CC[C@H]2[C@@H]3C/C=C4/C[C@@H](O)CC[C@]4(C)[C@H]3CC[C@]12C	115	–
Cc1ccc(C(C)(O)c2nc3ccccc3s2)c(C)c1 (stereo not given)	115	–
CN[C@@H](C)[C@H]1[C@H](O)C[C@@]2(C)[C@@H]3CC[C@H]4C(C)(C)[C@@H](NC)CC[C@@]45C[C@@]35CC[C@]12C	96	–
CN(CC#C)C/C1=C/C2=CC=CC=C2OC3=CC=CC=C13	81.4	–
NC(=O)c1ccc(-c2nc(-c3ccc4c(c3)OCO4)c(-c3ccccn3)[nH]2)cc1	126	–
CN(C(Cc1ccc(O[S+](=O)([O-])c2cccc3cnccc23)cc1)C(=O)N1CCN(c2ccccc2)CC1)[S+](=O)([O-])c1cccc2cnccc12 (stereo not given)	83.2	–
Nc1c2c(nc3ccccc13)CCCC2	107	–
C[N]1C=C(C=N1)C2=C3\C=N/NC(=O)C4=C3C(=CC(=C4)NC(=O)[C@H](N)C5CCCCC5)[NH]2	100	–
CC(=O)OCC(=O)[C@@]12OC(C)(C)O[C@@H]1C[C@H]3[C@@H]4C[C@H](F)C/5=C/C(=O)/C=C\[C@]5(C)[C@@]4(F)[C@@H](O)C[C@]23C	116	–
O=C(O)c1ccc(-n2nc(-c3ccccc3O)nc2-c2ccccc2O)cc1	80.9	–
Cc1c(C(=O)Nc2cccc(C(F)(F)F)c2)cc(-c2ccccc2)n1CCCN1CCOCC1	98.9	–
O=C(/C=C/c1ccc(O)cc1)c1ccc(O)cc1O	77	–
C=CC(=O)Nc1cc2c(Nc3ccc(F)c(Cl)c3)ncnc2cc1OCCCN1CCOCC1	81.6	–
COc1ccc([C@@H]2CC(=O)c3c(O)cc(O[C@@H]4O[C@H](CO[C@@H]5O[C@@H](C)[C@H](O)[C@@H](O)[C@H]5O)[C@@H](O)[C@H](O)[C@H]4O)cc3O2)cc1O	94.4 and 102	–
CCOC(=O)[C@@H](N)CCC(=O)N[C@@H](CSCc1ccccc1)C(=O)N[C@@H](C(=O)OCC)c1ccccc1	95.5	–
COC1=CC=CC2=C1C(=NC(=N2)C3=CC=CS3)NN4C(=O)\C=C(C)/C4=O	80	–
CN(C)c1nc(Cc2ccc(NC(=O)c3ccc(C(F)(F)F)cc3)cc2)nc(N(C)C)c1CC(=O)O	127	–

Structure (SMILES)	viability (top concentration 46.1 µM)	viability (top concentration 23 µM)
CCCCCCCCCCCCCCCCCCCCCCO	103	–
COC/1=C/C=C2\C(=C/C1=O)[C@H](CCC3=CC(=C(OC)C(=C23)OC)OC)NC(C)=O	90.8	–
CC(C)(O)CCc1ccc(OCc2cc(-c3cccc(OC(F)F)c3)c3ncccc3c2)cc1	143	–
Clc1ccccc1C(c1ccccc1)(c1ccccc1)n1ccnc1	99.5	–
C=C1/C(=C\C=C2/CCC[C@]3(C)[C@@H]([C@H](C)/C=C/[C@H](C)C(C)C)CC[C@@H]23)C[C@@H](O)C[C@@H]1O	150	–
CC(=O)O[C@H]1C[C@@H]2CC[C@@H]3[C@H](CC[C@@]4(C)[C@H]3C[C@H]([N+]3(C)CCCCC3)[C@@H]4OC(C)=O)[C@@]2(C)C[C@@H]1N1CCCCC1	130	–
CCC1(c2ccccc2)C(=O)NCNC1=O	105	–
COc1cccc(Nc2c(C(N)=O)cnc3c(C)cc([S+](=O)([O-])c4cccc(C(=O)N(C)C)c4)cc23)c1	–	97.1
CC(C)(C)C(=O)OCOP(=O)(COCCn1cnc2c(N)ncnc21)OCOC(=O)C(C)(C)C	93	–
CN1C(=O)CCS(=O)(=O)C1c1ccc(Cl)cc1 (stereo not given)	104	–
O=C1NC(=O)/C(=C/c2ccc(-c3ccc(F)cc3O)o2)S1	83	–
OC1=CC=C(C=C1)\C2=C\C(=O)C3=C(O2)C=C(O)C=C3O	138	–
C#C[C@]1(O)CC[C@H]2[C@@H]3CCc4cc(O)ccc4[C@H]3CC[C@@]21C	74.3	–
CC[C@H]1CN2CCc3cc(OC)c(OC)cc3[C@@H]2C[C@@H]1C[C@H]1NCCc2cc(OC)c(OC)cc21	79.9	–
N/C1=N/C(=O)C/2=C(NC[C@@H](CNC3=CC=C(C=C3)C(=O)N[C@@H](CCC([O-])=O)C([O-])=O)N2C=O)\N1	132	–
COc1c(C)c2c(c(O)c1C/C=C(\C)CCC(=O)O)C(=O)OC2	106	–
COc1ccc(/C=C\c2cc(OC)c(OC)c(OC)c2)cc1NC(=O)[C@H](N)CO	85.1	–
CN(C)[C@H]\1[C@@H]2C[C@H]3C(=C(O)\[C@]2(O)C(=O)\C(=C1O)C(N)=O)/C(=O)C4=C(O)C=CC=C4[C@@]3(C)O	106	–
CCOC(=O)N1c2ccc(C(F)(F)F)cc2[C@@H](N(Cc2cc(C(F)(F)F)cc(C(F)(F)F)c2)C(=O)OC)C[C@H]1CC	87.7	–
Cn1cnc2c(F)c(Nc3ccc(Br)cc3Cl)c(C(=O)NOCCO)cc21	73.7	–
COc1cc(OC2CCN(C)CC2)ccc1Nc1ncc2c(n1)n(C1CCCC1)c(=O)n2C	60.4	–
O=C1CCC(N2C(=O)c3ccccc3C2=O)C(=O)N1 (stereo not given)	92	–
O=C(O)c1cccc(-c2noc(-c3ccccc3F)n2)c1	118	–
COc1cc2c(cc1OC)[C@@H]1Cc3ccc(OC)c(OC)c3CN1CC2	115	–
COc1c(O)cc2c(c1O)[C@@H]1O[C@H](CO)[C@@H](O)[C@H](O)[C@H]1OC2=O	110	–
C1CCC(C(CC2CCCCN2)C2CCCCC2)CC1 (stereo not given)	85.1	–
